Experiments:
Format in all cases: in vivo, human
[1] = test system: patients with atrial flutter; assay: Placebo-controlled ascending dose study of intravenous tedisamil: conversion to normal sinus rhythm, patients with atrial flutter; details: for Conversion to NSR at any time within 2.5 hrs after the start of infusion (patients converted out of total) / Conversion to NSR at any time within 2.5 hrs after the start of infusion (percentage of patients) / Conversion to NSR at any time within 2.5 hrs and remaining in NSR until 2.5 hrs after the start of infusion (patients out of total) / Conversion to NSR at any time within 2.5 hrs and remaining in NSR until 2.5 hrs after the start of infusion (percentage of patients) / Conversion to NSR at any time within 2.5 hrs and remaining in NSR until 24 hrs after the start of infusion (patients out of total) / Conversion to NSR at any time within 2.5 hrs and remaining in NSR until 24 hrs after the start of infusion (percentage of patients) / Conversion to NSR at any time within 24 hrs after the start of infusion (patients out of total) / Conversion to NSR at any time within 24 hrs after the start of infusion (percentage of patients) / Conversion to NSR at any time within 24 hrs and remaining in NSR until 24 hrs after the start of infusion (patients out of total) / Conversion to NSR at any time within 24 hrs and remaining in NSR until 24 hrs after the start of infusion (percentage of patients): patients with atrial flutter; for Conversion to NSR at any time within 2.5 hrs after start of infusion (converted/total) / Conversion to NSR at any time within 2.5 hrs after start of infusion (%): Atrial Flutter, ITT patient sample, patients with DC cardioversion excluded
Method: A Multi-Center, Double-Blind, Randomized, Placebo-Controlled, Sequential Ascending Dose Groups Study to evaluate the Efficacy and Safety of Intravenous Tedisamil in the Rapid Conversion to Normal Sinus Rhythm in Patients with Atrial Fibrillation or Flutter was performed.
• Tedisamil (0.4 mg/kg body weight) • Tedisamil (0.6 mg/kg body weight) • Placebo • Dosages were given as a 30 minute intravenous infusion regimen. 1. Study Design
This multicenter trial was a double-blind, randomized, placebo-controlled, ascending dose groups study comparing the efficacy and safety of intravenous tedisamil treatment versus placebo in symptomatic patients with atrial fibrillation or flutter (>3 hours and <48 hours). The primary efficacy endpoint of this study was the termination of atrial fibrillation or flutter (for at least 60 seconds) within 2.5 hours after start of the infusion.
Following screening and baseline assessments, eligible patients were randomized to tedisamil or placebo with a sequential dose escalation approach. In the first stage, patients received 0.4 mg tedisamil/kg body weight or placebo over a 30 minutes infusion period, with half the dose infused during the first 10 minutes and half the dose infused over the remaining 20 minutes. After interim safety evaluation, in the second stage, patients received 0.6 mg tedisamil/kg body weight or placebo, with the same infusion regimen.
Patients were discharged from the telemetry unit 24 hours post infusion and safety follow up was to be obtained after 28 days. Blinded reviews of 12-lead ECGs (including 60 seconds rhythm strip) and 24 hour Holters to adjudicate the clinical endpoint (conversion to normal sinus rhythm) were performed centrally according to standard guidelines.
Tedisamil dihydrochloride, 0.4 mg/kg body weight, 0.6.mg/kg body weight was administered intravenously. The total infusion time was 30 minutes, with half the dose infused within 10 minutes, and half the dose infused within the remaining 20 minutes.
The percentage of patients converted to normal sinus rhythm (for at least 60 seconds) at any time within 2.5 hours after the initiation of the infusion of study drug.
6.1.2 Secondary Efficacy • The percentage of patients converted to normal sinus rhythm (for at least 60 seconds) at any time within 2.5 hrs and remaining in sinus rhythm until 2.5 hours after initiation of the intravenous infusion of tedisamil versus placebo. • The percentage of patients converted to normal sinus rhythm (for at least 60 seconds) at any time within 24 hours after initiation of the intravenous infusion of tedisamil versus placebo. • The percentage of patients converted to normal sinus rhythm (for at least 60 seconds) at any time within 24 hrs and remaining in sinus rhythm until 24 hours after initiation of the intravenous infusion of tedisamil versus placebo. • The percentage of patients converted to normal sinus rhythm (for at least 60 seconds) at any time within 2.5 hrs and remaining in sinus rhythm until 24 hours after initiation of the intravenous infusion of tedisamil versus placebo. • The time to conversion after the start of the infusion of tedisamil versus placebo. • The dose- and concentration-response relationships of tedisamil versus placebo.
The intent-to-treat patient sample was analyzed for efficacy. All tests were two-sided and a p-value <0.05 was considered significant. Differences in percentages of conversion were compared among the treatment groups using the Pearson chi-square statistic. Safety analysis was conducted on the safety patient sample. Numbers and percentages of patients with adverse events were calculated for each treatment group, using MedDRA preferred terms and body systems. Descriptive statistics were summarized by treatment group for changes from baseline in QT, heart rate and blood pressure. […]

AF/AFL patients = assay: Single infusion over 10 minutes in AF/AFL patients; details: intravenous doses of up to 0.24 mg/kg TEDI base, infused over 10 minutes
[2] = test system: subjects with recent onset atrial fibrillation or flutter; assay: Phase III study of intravenous tedisamil sesquifumarate in subjects with recent onset atrial fibrillation or flutter; details: second study (Phase III)
Method: This second clinical study was a Multi-Center, Double-Blind, Randomized, Placebo-Controlled, Parallel Design Study to evaluate the Efficacy and Safety of Intravenous Tedisamil Sesquifumarate in the Rapid Conversion to Normal Sinus Rhythm in Subjects with Recent Onset Atrial Fibrillation or Flutter.
The active ingredient used was tedisamil sesqifumarate. […] Study duration: Screening: up to 48 hours; treatment (in-patient): single 30-minute infusion; safety follow up: 24 hours (in-patient) with continuous telemetry and 28 day safety follow up. […]

[3] = 0.4 mg/kg iv two-step 30 minute infusion
[4] = 0.6 mg/kg iv two-step 30 minute infusion

C1CCC2(C1)C1CN(CC3CC3)CC2CN(CC2CC2)C1 [Tedisamil, N,N′-dicyclopropylmethyl-9,9-tetramethylene-3,7-diazabicyclo[3,3,1]nonane]
Conversion to NSR at any time within 2.5 hrs after the start of infusion (patients converted out of total) [1, 3]: 1 out of 9
Conversion to NSR at any time within 2.5 hrs after the start of infusion (percentage of patients) [1, 3]: (11%)
Conversion to NSR at any time within 2.5 hrs and remaining in NSR until 2.5 hrs after the start of infusion (patients out of total) [1, 3]: 1 out of 9
Conversion to NSR at any time within 2.5 hrs and remaining in NSR until 2.5 hrs after the start of infusion (percentage of patients) [1, 3]: (11%)
Conversion to NSR at any time within 2.5 hrs and remaining in NSR until 24 hrs after the start of infusion (patients out of total) [1, 3]: 1 out of 7
Conversion to NSR at any time within 2.5 hrs and remaining in NSR until 24 hrs after the start of infusion (percentage of patients) [1, 3]: (14%)
Conversion to NSR at any time within 24 hrs after the start of infusion (patients out of total) [1, 3]: 2 out of 7
Conversion to NSR at any time within 24 hrs after the start of infusion (percentage of patients) [1, 3]: (29%)
Conversion to NSR at any time within 24 hrs and remaining in NSR until 24 hrs after the start of infusion (patients out of total) [1, 3]: 2 out of 7
Conversion to NSR at any time within 24 hrs and remaining in NSR until 24 hrs after the start of infusion (percentage of patients) [1, 3]: (29%)
Conversion to NSR at any time within 2.5 hrs after the start of infusion (percentage of patients) ([1]; 0.4 mg/kg iv two-step 30 minute infusion, listed as tedisamil): 11%
Conversion to NSR at any time within 2.5 hrs after the start of infusion (patients converted out of total) [1, 4]: 3 out of 11
Conversion to NSR at any time within 2.5 hrs after the start of infusion (percentage of patients) [1, 4]: (27%)
Conversion to NSR at any time within 2.5 hrs and remaining in NSR until 2.5 hrs after the start of infusion (patients out of total) [1, 4]: 3 out of 11
Conversion to NSR at any time within 2.5 hrs and remaining in NSR until 2.5 hrs after the start of infusion (percentage of patients) [1, 4]: (27%)
Conversion to NSR at any time within 2.5 hrs and remaining in NSR until 24 hrs after the start of infusion (patients out of total) [1, 4]: 3 out of 7
Conversion to NSR at any time within 2.5 hrs and remaining in NSR until 24 hrs after the start of infusion (percentage of patients) [1, 4]: (43%)
Conversion to NSR at any time within 24 hrs after the start of infusion (patients out of total) [1, 4]: 3 out of 7
Conversion to NSR at any time within 24 hrs after the start of infusion (percentage of patients) [1, 4]: (43%)
Conversion to NSR at any time within 24 hrs and remaining in NSR until 24 hrs after the start of infusion (patients out of total) [1, 4]: 3 out of 7
Conversion to NSR at any time within 24 hrs and remaining in NSR until 24 hrs after the start of infusion (percentage of patients) [1, 4]: (43%)
Conversion to NSR at any time within 2.5 hrs after the start of infusion (percentage of patients) ([1]; 0.6 mg/kg iv two-step 30 minute infusion, listed as tedisamil): 27%
Conversion to NSR at any time within 2.5 hrs after start of infusion (converted/total) ([1]; Female, 0.4 mg/kg): 0/2
Conversion to NSR at any time within 2.5 hrs after start of infusion (%) ([1]; Female, 0.6 mg/kg): 33.3%
Conversion to NSR at any time within 2.5 hrs after start of infusion (converted/total) ([1]; Female, 0.6 mg/kg): 2/6
Conversion to NSR at any time within 2.5 hrs after start of infusion (%) ([1]; Male, 0.4 mg/kg): 14.3%
Conversion to NSR at any time within 2.5 hrs after start of infusion (converted/total) ([1]; Male, 0.4 mg/kg): 1/7
Conversion to NSR at any time within 2.5 hrs after start of infusion (%) ([1]; Male, 0.6 mg/kg): 20.0%
Conversion to NSR at any time within 2.5 hrs after start of infusion (converted/total) ([1]; Male, 0.6 mg/kg): 1/5
Conversions in AF/AFL patients (AF/AFL patients): did not produce any conversions
Gender difference in conversion rate [2]: male patients show a higher conversion rate compared to women

From patent publication US7087620B2, “Liquid pharmaceutical formulations containing 3,7-diazabicyclo[3,3,1]nonane compounds and methods of treatment relating to anti-arrhythmic events” (Solvay Pharmaceuticals GmbH, priority 2002, dated 2006)
